Test results published in patent US12252484B2, “Pyrazolopyridine compounds for the treatment of autoimmune disease” (Hoffmann-La Roche Inc., priority 2018, dated 2025).
Like-named read-outs stand apart in the source and are kept apart here.

Molecular target: T1, human TLR8 (Homo sapiens, UniProt Q9NR97)
T1 sequence (Q9NR97 27-1041): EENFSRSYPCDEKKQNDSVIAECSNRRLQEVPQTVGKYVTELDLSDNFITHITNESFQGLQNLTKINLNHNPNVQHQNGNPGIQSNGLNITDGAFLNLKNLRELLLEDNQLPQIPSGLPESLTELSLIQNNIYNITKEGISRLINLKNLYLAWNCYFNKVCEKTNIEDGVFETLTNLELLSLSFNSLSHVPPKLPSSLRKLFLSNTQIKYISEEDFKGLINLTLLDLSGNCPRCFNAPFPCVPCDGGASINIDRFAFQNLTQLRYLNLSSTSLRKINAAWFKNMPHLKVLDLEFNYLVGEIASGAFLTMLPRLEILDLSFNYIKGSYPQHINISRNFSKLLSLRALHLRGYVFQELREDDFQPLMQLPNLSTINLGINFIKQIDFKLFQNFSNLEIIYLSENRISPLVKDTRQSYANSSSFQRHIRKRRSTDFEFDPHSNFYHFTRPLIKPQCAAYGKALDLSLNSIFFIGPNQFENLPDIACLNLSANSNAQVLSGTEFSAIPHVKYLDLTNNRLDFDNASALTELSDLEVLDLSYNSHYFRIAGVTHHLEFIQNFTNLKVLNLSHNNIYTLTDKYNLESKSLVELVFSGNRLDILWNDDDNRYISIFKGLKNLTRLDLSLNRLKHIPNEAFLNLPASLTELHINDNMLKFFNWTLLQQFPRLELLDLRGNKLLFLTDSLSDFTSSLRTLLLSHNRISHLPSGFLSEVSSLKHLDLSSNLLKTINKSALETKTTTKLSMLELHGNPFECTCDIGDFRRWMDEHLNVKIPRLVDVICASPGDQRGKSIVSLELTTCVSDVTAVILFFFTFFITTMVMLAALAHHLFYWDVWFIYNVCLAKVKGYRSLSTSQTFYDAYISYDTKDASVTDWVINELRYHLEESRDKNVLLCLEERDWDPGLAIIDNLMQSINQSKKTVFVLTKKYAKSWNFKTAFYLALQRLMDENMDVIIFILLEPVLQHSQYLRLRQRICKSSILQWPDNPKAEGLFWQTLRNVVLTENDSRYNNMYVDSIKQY
Experiment: HEK293-Blue-hTLR-8 cells assay (SEAP reporter, R848 stimulation)
Assay type: cell-based
Description: The following tests were carried out in order to determine the activity of the compounds of formula (I) in HEK293-Blue-hTLR-7/8/9 cells assay.
HEK293-Blue-hTLR-8 Cells Assay:
A stable HEK293-Blue-hTLR-8 cell line was purchased from InvivoGen (Cat. #: hkb-htlr8, San Diego, California, USA). These cells were originally designed for studying the stimulation of human TLR8 by monitoring the activation of NF-κB. A SEAP (secreted embryonic alkaline phosphatase) reporter gene was placed under the control of the IFN-β minimal promoter fused to five NF-κB and AP-1-binding sites. The SEAP was induced by activating NF-κB and AP-1 via stimulating HEK-Blue hTLR8 cells with TLR8 ligands. Therefore the reporter expression was declined by TLR8 antagonist under the stimulation of a ligand, such as R848, for incubation of 20 hrs. The cell culture supernatant SEAP reporter activity was determined using QUANTI-Blue™ kit (Cat. #: rep-qb1, Invivogen, San Diego, Ca, USA) at a wavelength of 640 nm, a detection medium that turns purple or blue in the presence of alkaline phosphatase.
HEK293-Blue-hTLR8 cells were incubated at a density of 250,000˜450,000 cells/mL in a volume of 170 μL in a 96-well plate in Dulbecco's Modified Eagle's medium (DMEM) containing 4.5 g/L glucose, 50 U/mL penicillin, […], […], 2 mM L-glutamine, 10% (v/v) heat-inactivated fetal bovine serum with addition of 20 μL test compound in a serial dilution in the presence of final DMSO at 1% and 10 μL of 60 uM R848 in above DMEM, perform incubation under 37° C. in a CO2 incubator for 20 hrs. Then 20 μL of the supernatant from each well was incubated with 180 μL Quanti-blue substrate solution at 37° C. for 2 hrs and the absorbance was read at 620˜655 nm using a spectrophotometer. The signalling pathway that TLR8 activation leads to downstream NF-κB activation has been widely accepted, and therefore similar reporter assay was modified for evaluating TLR8 antagonist.

[1] = HEK293-Blue-hTLR-8 cells, R848 ligand, 20 hrs incubation, read-out: TLR8 IC50

Row | IC50 [1] | SMILES | IC50
1 | 860 nM | COCCNC(=O)[C@H]1CN(c2ccc(C#N)n3nccc23)C[C@@H](C)O1 [Example 9, (2R,6R)-4-(7-cyanopyrazolo[1,5-a]pyridin-4-yl)-N-(2-methoxyethyl)-6-methyl-morpholine-2-carboxamide] | –
2 | 72 nM | C[C@@H]1CN(c2ccc(C#N)n3nccc23)C[C@H](C(=O)NC2C3CNC[C@@H]32)O1 (stereo partly drawn) [Example 31, Trans-(2R,6R)-N-(3-azabicyclo[3.1.0]hexan-6-yl)-4-(7-cyanopyrazolo[1,5-a]pyridin-4-yl)-6-methyl-morpholine-2-carboxamide] | –
3 | 11 nM | C[C@@H]1CN(c2ccc(C#N)n3nccc23)C[C@H](C(=O)NC2CCCNCC2)O1 (stereo partly drawn) [Example 6, (2R,6R)-N-(azepan-4-yl)-4-(7-cyanopyrazolo[1,5-a]pyridin-4-yl)-6-methyl-morpholine-2-carboxamide] | –
4 | 25 nM | C[C@@H]1CN(c2ccc(C#N)n3nccc23)C[C@H](C(=O)NC2CC3COCC(C2)N3)O1 (stereo partly drawn) [Example 22, Endo-(2R,6R)-4-(7-cyanopyrazolo[1,5-a]pyridin-4-yl)-6-methyl-N-[3-oxa-9-azabicyclo[3.3.1]nonan-7-yl]morpholine-2-carboxamide] | –
5 | 160 nM | C[C@@H]1CN(c2ccc(C#N)n3nccc23)C[C@H](C(=O)N[C@H]2CNC[C@H]2F)O1 [Example 2, (2R,6R)-4-(7-cyanopyrazolo[1,5-a]pyridin-4-yl)-N-[(3S,4R)-4-fluoropyrrolidin-3-yl]-6-methyl-morpholine-2-carboxamide] | –
6 | 610 nM | C[C@@H]1CN(c2ccc(C#N)n3nccc23)C[C@H](C(=O)NC2CCNC2)O1 (stereo partly drawn) [Example 25, (2R,6R)-4-(7-cyanopyrazolo[1,5-a]pyridin-4-yl)-6-methyl-N-pyrrolidin-3-yl-morpholine-2-carboxamide] | –
7 | 47 nM | C[C@@H]1CN(c2ccc(C#N)n3nccc23)C[C@H](C(=O)NC2CNC[C@H]2F)O1 (stereo partly drawn) [Example 5, Cis-(2R,6R)-4-(7-cyanopyrazolo[1,5-a]pyridin-4-yl)-6-methyl-N-(4-fluoropyrrolidin-3-yl) morpholine-2-carboxamide] | –
8 | 380 nM | C[C@@H]1CN(c2ccc(C#N)n3nccc23)C[C@H](C(=O)NCC2CCNC2)O1 (stereo partly drawn) [Example 40, (2R,6R)-4-(7-cyanopyrazolo[1,5-a]pyridin-4-yl)-6-methyl-N-(pyrrolidin-3-ylmethyl)morpholine-2-carboxamide] | –
9 | 710 nM | C[C@@H]1CN(c2ccc(C#N)n3nccc23)C[C@H](C(=O)NC23CC(CO)(C2)C3)O1 [Example 15, (2R,6R)-4-(7-cyanopyrazolo[1,5-a]pyridin-4-yl)-N-[3-(hydroxymethyl)-1-bicyclo[1.1.1]pentanyl]-6-methyl-morpholine-2-carboxamide] | –
10 | 240 nM | C[C@H]1C[C@@H](NCC#N)CN(c2ccc(C#N)n3nccc23)C1 [Example 46, 4-[(3R,5S)-3-(cyanomethylamino)-5-methyl-1-piperidyl]pyrazolo[1,5-a]pyridine-7-carbonitrile] | –
11 | 33 nM | C[C@@H]1CN(c2ccc(C#N)n3nccc23)C[C@H](C(=O)NCC(C)(C)CN)O1 [Example 39, (2R,6R)-N-(3-amino-2,2-dimethyl-propyl)-4-(7-cyanopyrazolo[1,5-a]pyridin-4-yl)-6-methyl-morpholine-2-carboxamide] | –
12 | – | C[C@@H]1CN(c2ccc(C#N)n3nccc23)C[C@H](C(=O)NC2CC3CCCC(C2)N3C)O1 (stereo partly drawn) [Example 35, (2R,6R)-4-(7-cyanopyrazolo[1,5-a]pyridin-4-yl)-6-methyl-N-(9-methyl-9-azabicyclo[3.3.1]nonan-3-yl)morpholine-2-carboxamide] | 38 nM
13 | 93 nM | C[C@@H]1CN(c2ccc(C#N)n3nccc23)C[C@H](C(=O)NC2C3CCC2CNC3)O1 (stereo partly drawn) [Example 26, (2R,6R)-N-(3-azabicyclo[3.2.1]octan-8-yl)-4-(7-cyanopyrazolo[1,5-a]pyridin-4-yl)-6-methyl-morpholine-2-carboxamide] | –
14 | 910 nM | C[C@@H]1CN(c2ccc(C#N)n3nccc23)C[C@H](C(=O)NC2CCOCC2)O1 [Example 4, (2R,6R)-4-(7-cyanopyrazolo[1,5-a]pyridin-4-yl)-6-methyl-N-tetrahydropyran-4-yl-morpholine-2-carboxamide] | –
15 | 62 nM | C[C@@H]1CN(c2ccc(C#N)n3nccc23)C[C@H](C(=O)Nc2ccc(C(=O)N3CCNCC3)cc2)O1 [Example 42, (2R,6R)-4-(7-cyanopyrazolo[1,5-a]pyridin-4-yl)-6-methyl-N-[4-(piperazine-1-carbonyl)phenyl]morpholine-2-carboxamide] | –
16 | 100 nM | C[C@@H]1CN(c2ccc(C#N)n3nccc23)C[C@H](C(=O)NCC2CNCC2(F)F)O1 (stereo partly drawn) [Example 18, (2R,6R)-4-(7-cyanopyrazolo[1,5-a]pyridin-4-yl)-N-[(4,4-difluoropyrrolidin-3-yl)methyl]-6-methyl-morpholine-2-carboxamide] | –
17 | 95 nM | C[C@@H]1CN(c2ccc(C#N)n3nccc23)C[C@H](C(=O)NC2CC3(CNC3)C2)O1 [Example 3, (2R,6R)-N-(2-azaspiro[3.3]heptan-6-yl)-4-(7-cyanopyrazolo[1,5-a]pyridin-4-yl)-6-methyl-morpholine-2-carboxamide] | –
18 | 58 nM | C[C@@H]1CN(c2ccc(C#N)n3nccc23)C[C@H](C(=O)NC2CC3CCC(C2)N3C)O1 (stereo partly drawn) [Example 33, (2R,6R)-4-(7-cyanopyrazolo[1,5-a]pyridin-4-yl)-6-methyl-N-(8-methyl-8-azabicyclo[3.2.1]octan-3-yl)morpholine-2-carboxamide] | –
19 | 31 nM | C[C@@H]1CN(c2ccc(C#N)n3nccc23)C[C@H](C(=O)NC2CN(C)CC23CC3)O1 (stereo partly drawn) [Example 32, (2R,6R)-4-(7-cyanopyrazolo[1,5-a]pyridin-4-yl)-6-methyl-N-(5-methyl-5-azaspiro[2.4]heptan-7-yl)morpholine-2-carboxamide] | –
20 | 97 nM | C[C@@H]1CN(c2ccc(C#N)n3nccc23)C[C@H](C(=O)N2CCC3(CCNCC3)CC2)O1 [Example 28, 4-[(2R,6R)-2-(3,9-diazaspiro[5.5]undecane-3-carbonyl)-6-methyl-morpholin-4-yl]pyrazolo[1,5a]pyridine-7-carbonitrile] | –
21 | 74 nM | C[C@@H]1CN(c2ccc(C#N)n3nccc23)C[C@H](C(=O)NC2CC3CCC(C2)N3)O1 (stereo partly drawn) [Example 23, Exo-(2R,6R)-N-[8-azabicyclo[3.2.1]octan-3-yl]-4-(7-cyanopyrazolo[1,5-a]pyridin-4-yl)-6-methyl-morpholine-2-carboxamide] | –
22 | 520 nM | C[C@@H]1CN(c2ccc(C#N)n3nccc23)C[C@H](C(=O)N2CC(N)C2)O1 [Example 8, 4-[(2R,6R)-2-(3-aminoazetidine-1-carbonyl)-6-methyl-morpholin-4-yl]pyrazolo[1,5a]pyridine-7-carbonitrile] | –
23 | 50 nM | C[C@@H]1CN(c2ccc(C#N)n3nccc23)C[C@H](C(=O)NCC2CN(C)CCO2)O1 (stereo partly drawn) [Example 7, (2R,6R)-4-(7-cyanopyrazolo[1,5-a]pyridin-4-yl)-6-methyl-N-[(4-methylmorpholin-2-yl)methyl]morpholine-2-carboxamide] | –
24 | 37 nM | C[C@@H]1CN(c2ccc(C#N)n3nccc23)C[C@H](C(=O)NC2CCNCC2)O1 [Example 24, (2R,6R)-4-(7-cyanopyrazolo[1,5-a]pyridin-4-yl)-6-methyl-N-(4-piperidyl)morpholine-2-carboxamide] | –
